Test results taken from patent US10421761B2, “Compounds for kinase modulation, and indications therefor” (Plexxikon Inc., priority 2013, dated 2019).
Read-outs that look alike come from different tables or passages of the source.

Tests used:
BRAF V600E = target: T1, BRAF V600E (Homo sapiens, UniProt P15056, V600E); experiment: BRAF V600E biochemical kinase activity assay (AlphaScreen, biotin-MEK1 substrate); settings: BRAF V600E biochemical inhibitory activity
T1 construct: purchased Upstate Biotechnology

[1] = tested on: IPC-298 (NRAS Q61L) cell line; experiment: IPC-298 P-ERK cell activation assay (AlphaScreen); assay type: cell-based, human; settings: Homo sapiens, P-ERK cell activation, IPC-298, read-out: Cell activity (EC50 μM) IPC-298_P-ERK
Outline: (§1)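 Mouse B9 (HRAS-driven skin SCC) or human IPC-298 melanoma cells treated with an 8-point compound titration for one hour at 37° C., then lysed. ERK1/2 phosphorylation at Thr202/Tyr204 read by AlphaScreen with total-ERK and phospho-ERK antibodies.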

[2] = tested on: A375 (BRAF V600E) cell line; experiment: A375 P-ERK inhibition assay (AlphaScreen); assay type: cell-based, human; settings: Homo sapiens, A-375; A375_P-ERK
Outline: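 A375 cells treated with 8-point compound titration for 1 h at 37° C, then lysed. ERK1/2 Thr202/Tyr204 phosphorylation measured by AlphaScreen, using biotinylated total-ERK antibody on donor beads and phospho-specific antibody on acceptor beads.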

B9 (HRAS Q61L) cell line = experiment: B9 P-ERK cell activation assay (AlphaScreen); assay type: cell-based, mouse; settings: Mus musculus, P-ERK cell activation, B9, read-out: Cell activity (EC50 μM) B9_pERK
Outline: as §1

T1 sequence (P15056 whole entry V600E): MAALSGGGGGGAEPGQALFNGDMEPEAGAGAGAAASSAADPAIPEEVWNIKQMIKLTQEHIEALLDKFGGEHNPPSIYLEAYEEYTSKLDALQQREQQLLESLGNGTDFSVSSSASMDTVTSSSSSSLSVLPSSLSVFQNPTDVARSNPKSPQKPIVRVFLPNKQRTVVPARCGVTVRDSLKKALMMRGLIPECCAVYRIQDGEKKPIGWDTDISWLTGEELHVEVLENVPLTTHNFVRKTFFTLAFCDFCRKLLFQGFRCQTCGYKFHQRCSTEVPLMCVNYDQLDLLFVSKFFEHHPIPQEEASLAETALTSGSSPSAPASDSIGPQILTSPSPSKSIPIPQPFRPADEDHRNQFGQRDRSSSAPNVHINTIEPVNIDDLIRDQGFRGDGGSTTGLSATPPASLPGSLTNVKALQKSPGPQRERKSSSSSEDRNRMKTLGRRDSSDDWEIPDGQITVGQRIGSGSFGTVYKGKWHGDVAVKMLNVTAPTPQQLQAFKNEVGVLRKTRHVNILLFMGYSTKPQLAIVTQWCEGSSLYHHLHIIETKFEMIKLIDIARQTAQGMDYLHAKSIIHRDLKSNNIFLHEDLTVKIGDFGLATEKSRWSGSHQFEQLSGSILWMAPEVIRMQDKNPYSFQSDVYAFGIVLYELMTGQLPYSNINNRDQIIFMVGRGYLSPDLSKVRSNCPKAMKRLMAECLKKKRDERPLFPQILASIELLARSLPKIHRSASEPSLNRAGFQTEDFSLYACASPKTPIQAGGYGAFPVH

Row | SMILES | IC50 (BRAF V600E) | EC50 ([1]; numeric bounds) | IC50 [2] | EC50 (B9 (HRAS Q61L) cell line; numeric bounds) | EC50 ([1]; class symbols) | EC50 (B9 (HRAS Q61L) cell line; class symbols)
1 | NCCNc1ncnc2[nH]cc(C(=O)c3cccc(NS(=O)(=O)N4CCCC4)c3F)c12 [P-2102, N-[3-[4-(2-aminoethylamino)-7H-pyrrolo[2,3-d]pyrimidine-5-carbonyl]-2-fluoro-phenyl]pyrrolidine-1-sulfonamide] | 0.0001 to 1 µM | > 10 µM | 1 to 10 µM | > 10 µM |  | 
2 | COC(=O)N[C@@H](C)CNc1nccc(-c2cn(C(C)C)nc2-c2cc(Cl)cc(NS(=O)(=O)N3CCCCC3)c2F)n1 [P-2181, methyl N-[(1S)-2-[[4-[3-[5-chloro-2-fluoro-3-(1-piperidylsulfonylamino)phenyl]-1-isopropyl-pyrazol-4-yl]pyrimidin-2-yl]amino]-1-methyl-ethyl]carbamate] | 0.0001 to 1 µM |  | 0.0001 to 1 µM | > 10 µM | 0.0001 to 1 µM | 
3 | CCN(C)S(=O)(=O)Nc1cccc(C(=O)c2c[nH]c3ncnc(NC4CCOCC4)c23)c1F [P-2075, 5-[3-[[ethyl(methyl)sulfamoyl]amino]-2-fluoro-benzoyl]-4-(tetrahydropyran-4-ylamino)-7H-pyrrolo[2,3-d]pyrimidine] | 0.0001 to 1 µM | > 10 µM | 0.0001 to 1 µM | > 10 µM |  | 
4 | O=C(c1cc(F)cc(NS(=O)(=O)N2CCCC2)c1F)c1c[nH]c2ncc(-c3cnc(C4CC4)nc3)cc12 [P-2171, N-[3-[5-(2-cyclopropylpyrimidin-5-yl)-1H-pyrrolo[2,3-b]pyridine-3-carbonyl]-2,5-difluoro-phenyl]pyrrolidine-1-sulfonamide] | 0.0001 to 1 µM | > 1 µM | 0.0001 to 1 µM | > 10 µM |  | 
5 | CC(=O)Nc1ccc(NC(=O)c2c(F)ccc(NS(=O)(=O)N(C)C)c2F)cn1 [P-2034, N-(6-acetamido-3-pyridyl)-3-(dimethylsulfamoylamino)-2,6-difluoro-benzamide] | 0.0001 to 1 µM | > 10 µM | 1 to 10 µM | > 10 µM |  | 
6 | CCN(C)S(=O)(=O)Nc1ccc(F)c(C(=O)c2c[nH]c3ncnc(NC4CCOCC4)c23)c1F [P-2119, 5-[3-[[ethyl(methyl)sulfamoyl]amino]-2,6-difluoro-benzoyl]-4-(tetrahydropyran-4-ylamino)-7H-pyrrolo[2,3-d]pyrimidine] | 0.0001 to 1 µM | > 10 µM | 0.0001 to 1 µM | > 10 µM |  | 
7 | COC(=O)N[C@@H](C)CNc1nccc(-c2nn(C(C)C)cc2-c2cc(Cl)cc(NS(=O)(=O)C3CCC3)c2F)n1 [P-2169, methyl N-[(1S)-2-[[4-[4-[5-chloro-3-(cyclobutylsulfonylamino)-2-fluoro-phenyl]-1-isopropyl-pyrazol-3-yl]pyrimidin-2-yl]amino]-1-methyl-ethyl]carbamate] | 0.0001 to 1 µM |  | 0.0001 to 1 µM |  | 0.0001 to 1 µM | 0.0001 to 1 µM
8 | N#Cc1ccnc2[nH]cc(C(=O)c3c(F)ccc(NS(=O)(=O)C4CCC4)c3F)c12 [P-2021, N-[3-(4-cyano-1H-pyrrolo[2,3-b]pyridine-3-carbonyl)-2,4-difluoro-phenyl]cyclobutanesulfonamide] | 0.0001 to 1 µM | > 10 µM | > 10 µM | > 10 µM |  | 
9 | CC(C)Nc1ncnc2[nH]cc(C(=O)c3c(F)ccc(NS(=O)(=O)C4CCC4)c3F)c12 [P-2043, N-[2,4-difluoro-3-[4-(isopropylamino)-7H-pyrrolo[2,3-d]pyrimidine-5-carbonyl]phenyl]cyclobutanesulfonamide] | 1 to 10 µM | > 10 µM | 1 to 10 µM | > 10 µM |  | 
10 | CC(C)(C)c1nc(-c2cccc(NS(=O)(=O)N3CCCC3)c2F)c(-c2ncnc3[nH]cnc23)s1 [P-2125, N-[3-[2-tert-butyl-5-(9H-purin-6-yl)thiazol-4-yl]-2-fluoro-phenyl]pyrrolidine-1-sulfonamide] | 0.0001 to 1 µM | > 1 µM | 0.0001 to 1 µM | > 10 µM |  | 
11 | [2H]C1([2H])N(S(=O)(=O)Nc2cc(Cl)cc(C(=O)c3c[nH]c4ncc(-c5cnc(C6CC6)nc5)cc34)c2F)C([2H])([2H])C([2H])([2H])C1([2H])[2H] [P-2177, N-[5-chloro-3-[5-(2-cyclopropylpyrimidin-5-yl)-1H-pyrrolo[2,3-b]pyridine-3-carbonyl]-2-fluoro-phenyl]-2,2,3,3,4,4,5,5-octadeuterio-pyrrolidine-1-sulfonamide] | 0.0001 to 1 µM | > 10 µM | 0.0001 to 1 µM | > 10 µM |  | 
12 | CC(C)Nc1ncnc2[nH]cc(C(=O)c3c(F)ccc(NS(=O)(=O)C4CCCCC4)c3F)c12 [P-2039, N-[2,4-difluoro-3-[4-(isopropylamino)-7H-pyrrolo[2,3-d]pyrimidine-5-carbonyl]phenyl]cyclohexanesulfonamide] | 0.0001 to 1 µM | > 10 µM | 0.0001 to 1 µM | > 10 µM |  | 
13 | C[C@@H](Nc1ncnc2[nH]cc(C(=O)c3cccc(NS(=O)(=O)N4CCCC4)c3F)c12)C1CC1 [P-2094, N-[3-[4-[[(1R)-1-cyclopropylethyl]amino]-7H-pyrrolo[2,3-d]pyrimidine-5-carbonyl]-2-fluoro-phenyl]pyrrolidine-1-sulfonamide] | 0.0001 to 1 µM | > 10 µM | 0.0001 to 1 µM | > 10 µM |  | 
14 | CCN(C)S(=O)(=O)Nc1cccc(C(=O)c2c[nH]c3ncnc(NC[C@@H]4CCCO4)c23)c1F [P-2074, 5-[3-[[ethyl(methyl)sulfamoyl]amino]-2-fluoro-benzoyl]-4-[[(2S)-tetrahydrofuran-2-yl]methylamino]-7H-pyrrolo[2,3-d]pyrimidine] | 0.0001 to 1 µM | > 10 µM | 0.0001 to 1 µM | > 10 µM |  | 
15 | CCN(C)S(=O)(=O)Nc1cccc(C(=O)c2c[nH]c3ncnc(NC4CCC(F)(F)CC4)c23)c1F [P-2068, 4-[(4,4-difluorocyclohexyl)amino]-5-[3-[[ethyl(methyl)sulfamoyl]amino]-2-fluoro-benzoyl]-7H-pyrrolo[2,3-d]pyrimidine] | 0.0001 to 1 µM | > 10 µM | 0.0001 to 1 µM | > 10 µM |  | 
16 | COC(=O)N[C@@H](C)CNc1nccc(-c2nn(C(C)C)cc2-c2cc(Cl)cc(NS(=O)(=O)N3CCC3)c2F)n1 [P-2163, methyl N-[(1S)-2-[[4-[4-[3-(azetidin-1-ylsulfonylamino)-5-chloro-2-fluoro-phenyl]-1-isopropyl-pyrazol-3-yl]pyrimidin-2-yl]amino]-1-methyl-ethyl]carbamate] | 1 to 10 µM | > 10 µM | 1 to 10 µM | > 10 µM |  | 
17 | Cc1nc2c(-c3sc(C(C)(C)C)nc3-c3cccc(NS(=O)(=O)N4CCCC4)c3F)ncnc2[nH]1 [P-2124, N-[3-[2-tert-butyl-5-(8-methyl-9H-purin-6-yl)thiazol-4-yl]-2-fluoro-phenyl]pyrrolidine-1-sulfonamide] | 0.0001 to 1 µM | > 1 µM | 0.0001 to 1 µM | > 10 µM |  | 
18 | CC(C)(C)c1nc(-c2cccc(NS(=O)(=O)N3CC[C@H](F)C3)c2F)c(-c2ccnc(N)n2)s1 [P-2130, (3S)-N-[3-[5-(2-aminopyrimidin-4-yl)-2-tert-butyl-thiazol-4-yl]-2-fluoro-phenyl]-3-fluoro-pyrrolidine-1-sulfonamide] | 0.0001 to 1 µM |  | 0.0001 to 1 µM |  | 0.0001 to 1 µM | 0.0001 to 1 µM
19 | CN(C)S(=O)(=O)Nc1ccc(F)c(C(=O)c2c[nH]c3nccc(Cl)c23)c1F [Compound P-2007, 4-chloro-3-[3-(dimethylsulfamoylamino)-2,6-difluoro-benzoyl]-1H-pyrrolo[2,3-b]pyridine] | 0.0001 to 1 µM | > 10 µM | 0.0001 to 1 µM | > 10 µM |  | 
20 | CC(C)Nc1ncnc2[nH]cc(C(=O)c3c(F)ccc(NS(=O)(=O)N4CCOCC4)c3F)c12 [P-2044, N-[2,4-difluoro-3-[4-(isopropylamino)-7H-pyrrolo[2,3-d]pyrimidine-5-carbonyl]phenyl]morpholine-4-sulfonamide] | 0.0001 to 1 µM | > 10 µM | 0.0001 to 1 µM | > 10 µM |  | 
21 | COc1ccnc2[nH]cc(C(=O)c3c(F)ccc(NS(=O)(=O)C4CCCCC4)c3F)c12 [Compound P-2005, N-[2,4-difluoro-3-(4-methoxy-1H-pyrrolo[2,3-b]pyridine-3-carbonyl)phenyl]cyclohexanesulfonamide] | 0.0001 to 1 µM | > 10 µM | 1 to 10 µM | > 10 µM |  | 
22 | O=C(c1cccc(NS(=O)(=O)N2CCCC2)c1F)c1c[nH]c2ncnc(C3CC3)c12 [P-2078, N-[3-(4-cyclopropyl-7H-pyrrolo[2,3-d]pyrimidine-5-carbonyl)-2-fluoro-phenyl]pyrrolidine-1-sulfonamide] | 0.0001 to 1 µM | > 10 µM | 0.0001 to 1 µM | > 10 µM |  | 
23 | CCCN(C)S(=O)(=O)Nc1cccc(C(=O)c2c[nH]c3ncnc(C4CC4)c23)c1F [P-2087, 4-cyclopropyl-5-[2-fluoro-3-[[methyl(propyl)sulfamoyl]amino]benzoyl]-7H-pyrrolo[2,3-d]pyrimidine] | 0.0001 to 1 µM | > 10 µM | 1 to 10 µM | > 10 µM |  | 
24 | CCN(C)S(=O)(=O)Nc1cccc(C(=O)c2c[nH]c3ncnc(OC)c23)c1F [P-2092, 5-[3-[[ethyl(methyl)sulfamoyl]amino]-2-fluoro-benzoyl]-4-methoxy-7H-pyrrolo[2,3-d]pyrimidine] | 0.0001 to 1 µM | > 10 µM | 0.0001 to 1 µM | > 10 µM |  | 
